The source made the active and inactive calls. The rule behind the calls is not given here.
How the values were obtained:
[1] = biological target: Phospholipid-transporting ATPase ABCA1 (Homo sapiens, UniProt O95477); assay: Activation of ABCA1 (unknown origin)
[2] = biological target: T1, Oxysterols receptor LXR-beta (Homo sapiens, UniProt P55055); assay: Agonist activity at GST tagged LXRbeta (unknown origin) using SRC1 as coactivator peptide incubated for 1 hr by coactivator recruitment based TR-FRET assay
T1 sequence (P55055 whole entry): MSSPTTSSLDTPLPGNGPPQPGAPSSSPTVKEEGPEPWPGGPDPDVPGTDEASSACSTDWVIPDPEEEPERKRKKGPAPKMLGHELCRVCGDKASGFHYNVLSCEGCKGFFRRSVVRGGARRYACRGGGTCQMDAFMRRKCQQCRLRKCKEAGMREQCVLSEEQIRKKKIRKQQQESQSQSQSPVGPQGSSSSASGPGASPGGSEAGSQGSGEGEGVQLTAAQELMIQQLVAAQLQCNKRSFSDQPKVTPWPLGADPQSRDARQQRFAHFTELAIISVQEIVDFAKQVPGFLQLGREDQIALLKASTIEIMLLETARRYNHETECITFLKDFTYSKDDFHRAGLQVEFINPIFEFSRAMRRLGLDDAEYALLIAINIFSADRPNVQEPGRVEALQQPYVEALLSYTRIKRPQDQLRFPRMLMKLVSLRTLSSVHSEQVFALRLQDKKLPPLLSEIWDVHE

[3] = biological target: T2, Oxysterols receptor LXR-alpha (Homo sapiens, UniProt Q13133); assay: Agonist activity at GST tagged LXRalpha (unknown origin) using SRC1 as coactivator peptide incubated for 1 hr by coactivator recruitment based TR-FRET assay
T2 sequence (Q13133 whole entry): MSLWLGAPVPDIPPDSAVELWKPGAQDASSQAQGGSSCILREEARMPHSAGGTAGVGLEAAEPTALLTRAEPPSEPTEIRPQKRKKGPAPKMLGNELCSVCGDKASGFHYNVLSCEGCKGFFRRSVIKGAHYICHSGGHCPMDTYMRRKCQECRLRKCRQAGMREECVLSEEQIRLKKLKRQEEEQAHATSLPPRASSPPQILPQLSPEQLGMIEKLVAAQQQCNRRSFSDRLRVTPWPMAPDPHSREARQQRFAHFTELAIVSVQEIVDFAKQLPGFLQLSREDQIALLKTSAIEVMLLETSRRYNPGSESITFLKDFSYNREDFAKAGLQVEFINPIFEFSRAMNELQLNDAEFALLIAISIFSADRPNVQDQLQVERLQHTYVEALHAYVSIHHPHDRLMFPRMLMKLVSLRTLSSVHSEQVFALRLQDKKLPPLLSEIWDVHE

[4] = Toxicity in wild type C57BL/6 mouse assessed as change in ABCA1 protein expression in brain at 10 mg/kg,po administrated for 7 days by immunoblotting analysis; format: organism-based; settings: in vivo, 168 h, time 7 day
[5] = biological target: T3, Bile acid receptor (Homo sapiens) (UniProt Q96RI1); assay: Agonist activity at FXR LBD (unknown origin) transfected in HEK293T cells by measuring maximal efficacy incubated for 16 hrs by Gal4-reporter gene based luciferase assay; format: cell-based
T3 sequence (whole entry): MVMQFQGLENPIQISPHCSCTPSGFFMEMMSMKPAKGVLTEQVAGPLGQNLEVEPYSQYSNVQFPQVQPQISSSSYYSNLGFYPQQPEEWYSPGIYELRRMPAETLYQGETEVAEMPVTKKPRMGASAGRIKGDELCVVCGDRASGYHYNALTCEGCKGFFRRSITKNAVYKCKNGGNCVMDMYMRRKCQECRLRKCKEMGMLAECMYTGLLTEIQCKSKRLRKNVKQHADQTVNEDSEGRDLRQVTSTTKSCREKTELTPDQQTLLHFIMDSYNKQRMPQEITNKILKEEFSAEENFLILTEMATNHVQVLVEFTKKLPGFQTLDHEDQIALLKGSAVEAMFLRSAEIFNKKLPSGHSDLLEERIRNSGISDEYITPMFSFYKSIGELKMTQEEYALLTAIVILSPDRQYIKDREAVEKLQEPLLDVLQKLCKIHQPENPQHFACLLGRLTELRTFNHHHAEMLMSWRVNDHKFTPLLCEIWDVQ

HepG2 = assay: Agonist activity at LXR in human HepG2 cells assessed as upregulation of SREBF1 mRNA expression at 10 uM incubated for 24 hrs by qPCR analysis; format: cell-based; settings: filed as agonist
[6] = biological target: Phospholipid-transporting ATPase ABCA1 (Mus musculus) (UniProt P41233); assay: Activation of ABCA1 in mouse J774.2 cells assessed as increase in fluorescent-tagged cholesterol efflux at 1 uM incubated for 24 hrs by BODIPY based fluorescence analysis; format: cell-based; settings: filed as activator
Phospholipid-transporting ATPase ABCA1 (Mus musculus), sequence (P41233 whole entry): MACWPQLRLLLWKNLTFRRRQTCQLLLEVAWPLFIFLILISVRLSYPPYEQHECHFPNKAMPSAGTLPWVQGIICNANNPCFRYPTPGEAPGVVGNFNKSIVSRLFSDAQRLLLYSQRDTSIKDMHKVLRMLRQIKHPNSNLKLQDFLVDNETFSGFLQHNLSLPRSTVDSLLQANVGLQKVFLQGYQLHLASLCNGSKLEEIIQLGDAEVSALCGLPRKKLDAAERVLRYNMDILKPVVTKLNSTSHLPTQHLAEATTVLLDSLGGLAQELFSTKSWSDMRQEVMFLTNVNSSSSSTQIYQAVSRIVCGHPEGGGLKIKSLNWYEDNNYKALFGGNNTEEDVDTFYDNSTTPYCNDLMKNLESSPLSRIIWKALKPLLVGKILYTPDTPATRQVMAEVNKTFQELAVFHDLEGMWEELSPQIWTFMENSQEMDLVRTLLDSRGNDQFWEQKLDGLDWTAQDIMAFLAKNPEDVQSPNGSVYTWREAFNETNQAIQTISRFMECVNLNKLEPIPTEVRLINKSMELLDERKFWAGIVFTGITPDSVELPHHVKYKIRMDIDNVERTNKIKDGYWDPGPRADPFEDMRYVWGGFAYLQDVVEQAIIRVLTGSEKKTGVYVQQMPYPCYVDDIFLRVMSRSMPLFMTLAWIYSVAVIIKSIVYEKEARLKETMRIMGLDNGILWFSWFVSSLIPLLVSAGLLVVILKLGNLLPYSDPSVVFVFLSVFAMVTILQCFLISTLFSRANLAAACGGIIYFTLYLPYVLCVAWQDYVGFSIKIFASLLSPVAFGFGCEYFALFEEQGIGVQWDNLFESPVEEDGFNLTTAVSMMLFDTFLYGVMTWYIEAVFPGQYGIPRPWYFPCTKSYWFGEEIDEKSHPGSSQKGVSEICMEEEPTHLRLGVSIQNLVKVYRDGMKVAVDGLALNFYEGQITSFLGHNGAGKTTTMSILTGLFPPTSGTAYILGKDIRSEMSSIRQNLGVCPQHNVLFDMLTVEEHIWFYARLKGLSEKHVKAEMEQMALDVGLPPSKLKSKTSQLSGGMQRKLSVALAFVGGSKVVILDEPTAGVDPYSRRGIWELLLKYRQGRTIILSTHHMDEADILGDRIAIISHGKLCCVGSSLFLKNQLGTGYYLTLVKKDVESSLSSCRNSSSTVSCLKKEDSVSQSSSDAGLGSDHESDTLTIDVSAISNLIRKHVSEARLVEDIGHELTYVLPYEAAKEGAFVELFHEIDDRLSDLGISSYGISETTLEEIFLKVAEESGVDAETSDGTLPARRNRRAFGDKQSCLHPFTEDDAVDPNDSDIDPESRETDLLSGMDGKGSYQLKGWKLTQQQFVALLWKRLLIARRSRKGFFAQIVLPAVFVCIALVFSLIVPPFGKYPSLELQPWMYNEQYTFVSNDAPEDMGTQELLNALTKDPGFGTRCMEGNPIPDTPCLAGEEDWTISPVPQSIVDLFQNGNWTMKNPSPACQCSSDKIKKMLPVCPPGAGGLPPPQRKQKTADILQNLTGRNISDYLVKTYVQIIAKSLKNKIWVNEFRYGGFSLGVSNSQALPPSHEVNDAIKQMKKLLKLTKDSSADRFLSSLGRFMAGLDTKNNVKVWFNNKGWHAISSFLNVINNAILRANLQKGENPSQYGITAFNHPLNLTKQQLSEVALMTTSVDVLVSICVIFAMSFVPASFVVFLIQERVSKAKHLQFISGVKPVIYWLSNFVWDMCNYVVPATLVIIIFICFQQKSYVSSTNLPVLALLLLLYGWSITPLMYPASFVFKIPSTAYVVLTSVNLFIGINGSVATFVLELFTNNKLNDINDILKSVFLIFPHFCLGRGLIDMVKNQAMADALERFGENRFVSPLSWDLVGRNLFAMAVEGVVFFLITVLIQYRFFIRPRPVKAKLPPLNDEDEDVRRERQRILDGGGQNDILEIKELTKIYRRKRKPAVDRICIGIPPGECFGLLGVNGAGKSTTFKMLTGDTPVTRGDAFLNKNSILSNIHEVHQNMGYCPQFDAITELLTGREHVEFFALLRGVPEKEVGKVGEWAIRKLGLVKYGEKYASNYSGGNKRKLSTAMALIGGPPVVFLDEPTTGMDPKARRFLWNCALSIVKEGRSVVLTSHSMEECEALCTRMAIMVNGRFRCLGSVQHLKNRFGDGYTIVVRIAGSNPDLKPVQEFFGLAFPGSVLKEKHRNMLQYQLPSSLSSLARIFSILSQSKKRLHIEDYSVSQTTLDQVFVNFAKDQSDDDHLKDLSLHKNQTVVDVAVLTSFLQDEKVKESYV

Phospholipid-transporting ATPase ABCA1, sequence (O95477 whole entry): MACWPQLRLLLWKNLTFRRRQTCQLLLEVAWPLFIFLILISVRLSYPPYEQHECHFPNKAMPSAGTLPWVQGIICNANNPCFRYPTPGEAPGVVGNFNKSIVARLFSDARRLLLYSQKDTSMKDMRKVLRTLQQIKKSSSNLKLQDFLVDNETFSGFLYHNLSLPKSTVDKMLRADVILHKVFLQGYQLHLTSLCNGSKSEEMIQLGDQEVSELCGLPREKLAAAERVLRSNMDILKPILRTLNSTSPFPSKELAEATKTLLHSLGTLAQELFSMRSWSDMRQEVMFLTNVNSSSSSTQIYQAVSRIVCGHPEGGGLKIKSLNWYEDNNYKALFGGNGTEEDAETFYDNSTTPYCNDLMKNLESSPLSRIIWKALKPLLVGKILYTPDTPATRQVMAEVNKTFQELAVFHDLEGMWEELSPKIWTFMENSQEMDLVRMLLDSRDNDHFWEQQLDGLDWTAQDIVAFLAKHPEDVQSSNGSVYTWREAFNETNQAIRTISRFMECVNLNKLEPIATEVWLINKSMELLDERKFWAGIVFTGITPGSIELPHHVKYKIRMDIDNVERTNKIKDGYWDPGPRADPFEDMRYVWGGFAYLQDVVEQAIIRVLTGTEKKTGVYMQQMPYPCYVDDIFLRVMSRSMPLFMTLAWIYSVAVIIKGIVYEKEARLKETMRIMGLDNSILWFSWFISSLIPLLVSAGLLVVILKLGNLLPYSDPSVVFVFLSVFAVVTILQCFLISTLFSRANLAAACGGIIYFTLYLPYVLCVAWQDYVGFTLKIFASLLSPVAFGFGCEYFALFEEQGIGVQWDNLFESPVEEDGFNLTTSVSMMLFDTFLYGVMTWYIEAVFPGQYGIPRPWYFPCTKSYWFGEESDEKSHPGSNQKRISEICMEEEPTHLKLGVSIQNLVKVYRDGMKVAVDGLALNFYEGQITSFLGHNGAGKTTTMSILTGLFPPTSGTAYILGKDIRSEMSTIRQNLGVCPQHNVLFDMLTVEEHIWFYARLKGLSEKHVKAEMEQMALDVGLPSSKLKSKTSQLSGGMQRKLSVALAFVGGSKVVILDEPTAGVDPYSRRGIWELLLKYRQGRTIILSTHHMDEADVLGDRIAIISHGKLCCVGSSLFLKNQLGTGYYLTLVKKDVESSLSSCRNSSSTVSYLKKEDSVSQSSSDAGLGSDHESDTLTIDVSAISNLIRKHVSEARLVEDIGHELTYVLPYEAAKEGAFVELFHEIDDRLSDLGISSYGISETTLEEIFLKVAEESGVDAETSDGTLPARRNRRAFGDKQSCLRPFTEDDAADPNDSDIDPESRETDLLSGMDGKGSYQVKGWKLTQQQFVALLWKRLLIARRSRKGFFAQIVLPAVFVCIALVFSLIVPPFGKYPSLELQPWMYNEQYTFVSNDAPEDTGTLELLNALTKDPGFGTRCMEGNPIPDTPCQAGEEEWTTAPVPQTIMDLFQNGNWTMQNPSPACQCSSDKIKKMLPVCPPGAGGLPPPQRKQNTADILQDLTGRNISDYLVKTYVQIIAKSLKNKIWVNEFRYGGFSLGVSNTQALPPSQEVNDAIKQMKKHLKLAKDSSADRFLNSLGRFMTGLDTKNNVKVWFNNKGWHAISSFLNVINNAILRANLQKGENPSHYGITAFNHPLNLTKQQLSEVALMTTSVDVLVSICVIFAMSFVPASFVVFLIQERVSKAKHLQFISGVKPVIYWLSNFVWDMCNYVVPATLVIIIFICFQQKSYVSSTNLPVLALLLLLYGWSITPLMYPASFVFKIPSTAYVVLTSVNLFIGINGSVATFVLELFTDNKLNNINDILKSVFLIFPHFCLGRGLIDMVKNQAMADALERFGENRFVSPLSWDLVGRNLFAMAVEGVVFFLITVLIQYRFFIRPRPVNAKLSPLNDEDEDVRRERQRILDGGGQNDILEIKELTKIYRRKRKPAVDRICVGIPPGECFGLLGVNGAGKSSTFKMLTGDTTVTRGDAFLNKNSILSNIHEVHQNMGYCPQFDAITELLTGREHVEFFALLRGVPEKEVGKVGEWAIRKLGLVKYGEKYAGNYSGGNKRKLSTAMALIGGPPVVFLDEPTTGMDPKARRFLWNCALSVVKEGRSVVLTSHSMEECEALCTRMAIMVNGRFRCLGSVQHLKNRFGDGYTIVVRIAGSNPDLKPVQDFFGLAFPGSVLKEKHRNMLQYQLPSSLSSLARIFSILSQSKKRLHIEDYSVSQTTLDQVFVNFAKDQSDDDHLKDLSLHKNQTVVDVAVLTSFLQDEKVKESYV

Row | Structure (SMILES) | EC50 [2] | EC50 [3] | further results
1 | CN(CC(=O)Nc1ccc(F)c(F)c1F)C(=O)c1ccc2c(c1)OCCO2 | – | – | EC50 [1]: > 1 µM
2 | CCOc1ccc(N(C)S(=O)(=O)c2cc(Cl)sc2C(=O)Nc2cccc(C(=O)OCCOC)c2)cc1OCC | 15 µM | – | –
3 | CCOc1ccc(N(C)S(=O)(=O)c2cc(Cl)sc2C(=O)Nc2cc(Cl)cc(C(=O)OCCOCCOC)c2)cc1OC | – | 1 µM | –
4 | CCOC(=O)c1cccc(-c2nnc(-c3sc(Cl)cc3S(=O)(=O)N(C)c3ccc(OCC)c(OC)c3)o2)c1 | – | > 25 µM | –
5 | CCOc1ccc(N(C)S(=O)(=O)c2ccsc2C(=O)Nc2cccc(C(=O)OC)c2)cc1 | > 25 µM | – | –
6 | O=C(O)Cc1cccc(OCCCN(Cc2cccc(C(F)(F)F)c2Cl)CC(c2ccccc2)c2ccccc2)c1 | – | – | Activity [4]: Toxic
7 | CCOC(=O)c1cccc(NC(=O)c2sc(Cl)cc2S(=O)(=O)N(C)c2ccc(OCC)cc2)c1 | 13 µM | 4.8 µM | –
8 | CCCOc1ccc(N(C)S(=O)(=O)c2ccsc2C(=O)Nc2cccc(C(=O)OCC)c2)cc1 | 11 µM | – | –
9 | CCOc1ccc(N(C)S(=O)(=O)c2cc(Cl)sc2C(=O)Nc2cc(Cl)cc(C(=O)OCCOC)c2)cc1OC | 0.58 µM | – | –
10 | CCOC(=O)c1cccc(NC(=O)c2sc(Cl)cc2S(=O)(=O)N(C)c2ccc(N(C)C)cc2)c1 | – | 11 µM | –
11 | O=S(=O)(c1ccccc1)N(CC(F)(F)F)c1ccc(C(O)(C(F)(F)F)C(F)(F)F)cc1 | – | – | Emax [5]: 35%; Activity (HepG2): Active; Activity [6]: Active
12 | CCOC(=O)c1cccc(NC(=O)c2sccc2S(=O)(=O)N(C)c2ccc(OCC)c(OCC)c2)c1 | 4.5 µM | 3.5 µM | –
13 | CCOC(=O)c1cccc(NC(=O)c2sc(Cl)cc2S(=O)(=O)N(C)c2ccc(OCC)c(OC)c2)c1 | – | 0.95 µM | –
14 | CCOc1ccc(N(C)S(=O)(=O)c2cc(Cl)sc2C(=O)Nc2cc(Cl)cc(C3OCCO3)c2)cc1OC | 13 µM | 15 µM | –
15 | CCOc1ccc(N(C)S(=O)(=O)c2cc(Cl)sc2C(=O)Nc2cccc(C(=O)OCCOCCOC)c2)cc1OCC | – | > 25 µM | –
